Literature values in patent publication US20100209363A1, “PERSONAL CLEANSING COMPOSITION INCLUDING A STRUCTURED SURFACTANT SYSTEM AND A SUN PROTECTION FACTOR COMPOSITION” (The Dial Corporation, priority 2009, published 2010).

Settings: in capric triglyceride

Row | Compound | miscibility with capric triglyceride | concentration up to which miscible with capric triglyceride
1 | CCCCC(CC)COC(=O)C(C#N)=C(c1ccccc1)c1ccccc1 (stereo not drawn) [octocrylene, 2-ethylhexyl 2-cyano-3,3-diphenylacrylate] | miscible | 
2 | COc1ccc(C(=O)CC(=O)c2ccc(C(C)(C)C)cc2)cc1 [avobenzone, 4-tert-butyl-4′-methoxydibenzoylmethane] | miscible | up to 16 wt. %
